Measurements from PMC6115637 (Chemical Science, 2018).
Substitutions are numbered along the chain they refer to.

How the values were obtained:
Format in all cases: cell-based
M4 receptor I81A = target: T1, M4 receptor I81A (Homo sapiens, UniProt P08173, I81A); assay: Split luciferase biosensor cAMP assay for Gi activation, M4 mutant I81A; settings: M4 mutant I81A vs WT
T1 sequence (P08173 1-479 I81A): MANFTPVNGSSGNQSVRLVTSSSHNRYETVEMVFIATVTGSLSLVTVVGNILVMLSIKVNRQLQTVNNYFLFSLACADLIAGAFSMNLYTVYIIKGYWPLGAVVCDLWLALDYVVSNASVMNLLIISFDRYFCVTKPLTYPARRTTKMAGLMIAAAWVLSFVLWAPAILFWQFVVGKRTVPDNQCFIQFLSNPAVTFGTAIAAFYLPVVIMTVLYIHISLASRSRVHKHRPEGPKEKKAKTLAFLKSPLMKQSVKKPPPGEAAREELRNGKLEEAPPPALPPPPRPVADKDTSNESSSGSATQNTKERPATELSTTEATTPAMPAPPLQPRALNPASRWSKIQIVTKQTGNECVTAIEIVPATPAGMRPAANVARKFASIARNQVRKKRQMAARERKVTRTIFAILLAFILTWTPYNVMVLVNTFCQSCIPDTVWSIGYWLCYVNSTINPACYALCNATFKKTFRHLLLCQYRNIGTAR

M4 receptor S116A = target: T2, M4 receptor S116A (Homo sapiens, UniProt P08173, S116A); assay: Split luciferase biosensor cAMP assay for Gi activation, M4 mutant S116A; settings: M4 mutant S116A vs WT
T2 sequence (P08173 1-479 S116A): T1 sequence (P08173 1-479 I81A) with A81I, S116A

M4 receptor S119A = target: T3, M4 receptor S119A (Homo sapiens, UniProt P08173, S119A); assay: Split luciferase biosensor cAMP assay for Gi activation, M4 mutant S119A; settings: M4 mutant S119A vs WT
T3 sequence (P08173 1-479 S119A): T1 sequence (P08173 1-479 I81A) with A81I, S119A

M4 receptor V120A = target: T4, M4 receptor V120A (Homo sapiens, UniProt P08173, V120A); assay: Split luciferase biosensor cAMP assay for Gi activation, M4 mutant V120A; settings: M4 mutant V120A vs WT
T4 sequence (P08173 1-479 V120A): T1 sequence (P08173 1-479 I81A) with A81I, V120A

M4 receptor F409A = target: T5, M4 receptor F409A (Homo sapiens, UniProt P08173, F409A); assay: Split luciferase biosensor cAMP assay for Gi activation, M4 mutant F409A; settings: M4 mutant F409A vs WT
T5 sequence (P08173 1-479 F409A): T1 sequence (P08173 1-479 I81A) with A81I, F409A

M4 receptor W413A = target: T6, M4 receptor W413A (Homo sapiens, UniProt P08173, W413A); assay: Split luciferase biosensor cAMP assay for Gi activation, M4 mutant W413A
T6 sequence (P08173 1-479 W413A): T1 sequence (P08173 1-479 I81A) with A81I, W413A

M4 receptor N445A = target: T7, M4 receptor N445A (Homo sapiens, UniProt P08173, N445A); assay: Split luciferase biosensor cAMP assay for Gi activation, M4 mutant N445A; settings: M4 mutant N445A vs WT
T7 sequence (P08173 1-479 N445A): T1 sequence (P08173 1-479 I81A) with A81I, N445A

activity decrease compared to WT M4 receptor (M4 receptor I81A): 100 times
activity decrease compared to WT M4 receptor (M4 receptor S116A): 100 times
decreased activity compared to WT M4 receptor (M4 receptor S119A): 4–14 fold
change of EC50 compared to WT M4 receptor (printed: increased the EC50) (M4 receptor V120A): 16 fold
decreased activity compared to WT M4 receptor (M4 receptor F409A): 4–14 fold
activity of M4 mutant towards ACh (M4 receptor W413A): completely inactive
decreased activity compared to WT M4 receptor (M4 receptor N445A): 4–14 fold
SMILES: CC(=O)OCC[N+](C)(C)C [ACh, acetylcholine]
